Source: patent US20110053910A1, “2 -HETEROCYCLYLOXYBENZOYL AMINO HETEROCYCLYL COMPOUNDS AS MODULATORS OF GLUCOKINASE FOR THE TREATMENT OF TYPE 2 DIABETES” (priority 2005, published 2011)

Experiments:
[1] = target: T1, recombinant human pancreatic GLK (Homo sapiens, UniProt P35557); assay: biochemical
T1 sequence (P35557 1-465): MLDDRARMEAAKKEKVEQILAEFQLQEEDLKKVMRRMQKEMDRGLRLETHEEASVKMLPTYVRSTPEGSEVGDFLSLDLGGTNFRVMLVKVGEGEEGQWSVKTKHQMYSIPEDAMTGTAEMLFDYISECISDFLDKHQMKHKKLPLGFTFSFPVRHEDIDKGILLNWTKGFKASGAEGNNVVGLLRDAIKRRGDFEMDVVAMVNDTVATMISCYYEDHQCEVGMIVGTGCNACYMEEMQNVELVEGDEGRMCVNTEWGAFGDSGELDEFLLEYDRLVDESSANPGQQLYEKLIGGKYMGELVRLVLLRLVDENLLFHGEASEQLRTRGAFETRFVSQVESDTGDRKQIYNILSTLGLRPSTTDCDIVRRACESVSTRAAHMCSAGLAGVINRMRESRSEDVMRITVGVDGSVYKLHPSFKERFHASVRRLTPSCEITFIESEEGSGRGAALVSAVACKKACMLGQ

Zucker obese fa/fa rats = assay: Oral Glucose Tolerance Test (OGTT); type: in vivo, rat; conditions: 10 mg/kg, given orally 120 minutes before glucose 2 g/kg; Zucker obese fa/fa rats on high fat diet; vehicle-control AUC = zero percent
Protocol: Oral glucose tolerance tests were done on conscious Zucker obese fa/fa rats (age 12-13 weeks or older) fed a high fat diet (45% kcal fat) for at least two weeks prior to experimentation. The animals were fasted for 2 hours before use for experiments. A test compound or a vehicle was given orally 120 minutes before oral administration of a glucose solution at a dose of 2 g/kg body weight. Blood glucose levels were measured using a Accucheck glucometer from tail bled samples taken at different time points before and after administration of glucose (time course of […]). A time curve of the blood glucose levels was generated and the area-under-the-curve (AUC) for 120 minutes was calculated (the time of glucose administration being time zero). Percent reduction in glucose excursion was determined using the AUC in the vehicle-control group as zero percent reduction.

**Q.** Which results are given for `C[C@@H](CO)Oc1cc(Oc2nc3ccccc3s2)cc(C(=O)Nc2ccn(C)n2)c1` [Example 1, 3-(1,3-Benzothiazol-2-yloxy)-5-{[(1S)-2-hydroxy-1-methylethyl]oxy}-N-(1-methyl-1H-pyrazol-3-yl)benzamide]?
**A.** EC50 [1]: 88 nM; activity in OGTT (percent reduction in glucose excursion, AUC) (Zucker obese fa/fa rats): 50%
